Reference: PubChem BioAssay AID2060893 (Molecular Pharmacology Branch, DTP, NCI, 2025)
Values belong to the compound of their own block, whether it stands above or below them.

Tested on: K86415-001-R-J1-PDC complex spheroids, viability
Assay: Anticancer human tumor K86415-001-R-J1-PDC patient-derived lung adenocarcinoma cell line growth inhibition [RAS]
Details: for IC50: curve of first compound; for viability, T/C: stronger effect = lower value
Procedure, shortened: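 Multi-cell-type spheroids: tumor cells plus HUVEC endothelial cells and mesenchymal stem cells. RAS-pathway inhibitors were combined with targeted agents, each dosed in half-log steps down from clinical Cmax, or from 10 microM when Cmax was unknown.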

[1] = second compound 0.0316 µM, first compound 0.0316 µM
[2] = second compound 0.0316 µM, first compound 0.1 µM
[3] = second compound 0.1 µM, first compound 0.0316 µM
[4] = second compound 0.1 µM, first compound 0.1 µM
[5] = second compound 0.316 µM, first compound 0.0316 µM
[6] = second compound 0.316 µM, first compound 0.1 µM
[7] = second compound 1 µM, first compound 0.0316 µM
[8] = second compound 1 µM, first compound 0.1 µM
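Further: spheroids exposed to agents for seven days before readout.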

IC50 (second compound 0.0316 µM): 0.05 µM | IC50 (second compound 0.1 µM): 0.0488 µM | IC50 (second compound 0.316 µM): 0.0571 µM | IC50 (second compound 1 µM): 0.059 µM | IC50 (second compound 3.16 µM): < 0.000316 µM | IC50 (second compound 10 µM): < 0.000316 µM
SMILES: CC(C)n1nc(-c2ccc3oc(N)nc3c2)c2c(N)ncnc21 + C#Cc1c(F)ccc2cc(O)cc(-c3ncc4c(N5CC6CCC(C5)N6)nc(OCC56CCCN5CC(F)C6)nc4c3F)c12
viability, T/C (second compound 0.0316 µM, first compound 0.000316 µM): 96.9% | viability, T/C (second compound 0.0316 µM, first compound 0.001 µM): 105% | viability, T/C (second compound 0.0316 µM, first compound 0.00316 µM): 105% | viability, T/C (second compound 0.0316 µM, first compound 0.01 µM): 89.2% | viability, T/C [1]: 63.5% | viability, T/C [2]: 30.3% | viability, T/C (second compound 0.1 µM, first compound 0.000316 µM): 99.6% | viability, T/C (second compound 0.1 µM, first compound 0.001 µM): 120% | viability, T/C (second compound 0.1 µM, first compound 0.00316 µM): 102% | viability, T/C (second compound 0.1 µM, first compound 0.01 µM): 96.5% | viability, T/C [3]: 62.4% | viability, T/C [4]: 29.3% | viability, T/C (second compound 0.316 µM, first compound 0.000316 µM): 95.2% | viability, T/C (second compound 0.316 µM, first compound 0.001 µM): 94.7% | viability, T/C (second compound 0.316 µM, first compound 0.00316 µM): 92.3% | viability, T/C (second compound 0.316 µM, first compound 0.01 µM): 96.5% | viability, T/C [5]: 67.5% | viability, T/C [6]: 33.4% | viability, T/C (second compound 1 µM, first compound 0.000316 µM): 68.8% | viability, T/C (second compound 1 µM, first compound 0.001 µM): 70.6% | viability, T/C (second compound 1 µM, first compound 0.00316 µM): 68.1% | viability, T/C (second compound 1 µM, first compound 0.01 µM): 83% | viability, T/C [7]: 70% | viability, T/C [8]: 32.4% | viability, T/C (second compound 3.16 µM, first compound 0.000316 µM): 35.4% | viability, T/C (second compound 3.16 µM, first compound 0.001 µM): 40.3% | viability, T/C (second compound 3.16 µM, first compound 0.00316 µM): 38.2% | viability, T/C (second compound 3.16 µM, first compound 0.01 µM): 44.5% | viability, T/C (second compound 3.16 µM, first compound 0.0316 µM): 52.3% | viability, T/C (second compound 3.16 µM, first compound 0.1 µM): 28.5% | viability, T/C (second compound 10 µM, first compound 0.000316 µM): 15.9% | viability, T/C (second compound 10 µM, first compound 0.001 µM): 17.6% | viability, T/C (second compound 10 µM, first compound 0.00316 µM): 15.1% | viability, T/C (second compound 10 µM, first compound 0.01 µM): 19.3% | viability, T/C (second compound 10 µM, first compound 0.0316 µM): 19.5% | viability, T/C (second compound 10 µM, first compound 0.1 µM): 8.39%

IC50 (second compound 0.00316 µM): < 0.0316 µM | IC50 (second compound 0.01 µM): < 0.0316 µM | IC50 (second compound 0.0316 µM): < 0.0316 µM | IC50 (second compound 0.1 µM): < 0.0316 µM | IC50 (second compound 0.316 µM): < 0.0316 µM | IC50 (second compound 1 µM): < 0.0316 µM
SMILES: CC(Nc1ccc2c(c1)OCCn1cc(N3C(=O)OCC3C(F)F)nc1-2)C(N)=O (centres undefined) + C=CC(=O)N1CCN(c2nc(OCC3CCCN3C)nc3c(F)c(-c4nc(N)cc(C)c4C(F)(F)F)c(Cl)cc23)C(C)C1
viability, T/C (second compound 0.00316 µM, first compound 0.0316 µM): 12.4% | viability, T/C (second compound 0.00316 µM, first compound 0.1 µM): 11% | viability, T/C (second compound 0.00316 µM, first compound 0.316 µM): 9.71% | viability, T/C (second compound 0.00316 µM, first compound 1 µM): 13.9% | viability, T/C (second compound 0.00316 µM, first compound 3.16 µM): 8.57% | viability, T/C (second compound 0.00316 µM, first compound 10 µM): 4.65% | viability, T/C (second compound 0.01 µM, first compound 0.0316 µM): 10.6% | viability, T/C (second compound 0.01 µM, first compound 0.1 µM): 8.09% | viability, T/C (second compound 0.01 µM, first compound 0.316 µM): 7.67% | viability, T/C (second compound 0.01 µM, first compound 1 µM): 4.13% | viability, T/C (second compound 0.01 µM, first compound 3.16 µM): 2.86% | viability, T/C (second compound 0.01 µM, first compound 10 µM): 1.6% | viability, T/C [1]: 8.44% | viability, T/C [2]: 6.97% | viability, T/C (second compound 0.0316 µM, first compound 0.316 µM): 5.95% | viability, T/C (second compound 0.0316 µM, first compound 1 µM): 3.55% | viability, T/C (second compound 0.0316 µM, first compound 3.16 µM): 2.24% | viability, T/C (second compound 0.0316 µM, first compound 10 µM): 1.34% | viability, T/C [3]: 8.36% | viability, T/C [4]: 6.36% | viability, T/C (second compound 0.1 µM, first compound 0.316 µM): 3.79% | viability, T/C (second compound 0.1 µM, first compound 1 µM): 3.04% | viability, T/C (second compound 0.1 µM, first compound 3.16 µM): 1.94% | viability, T/C (second compound 0.1 µM, first compound 10 µM): 1.11% | viability, T/C [5]: 8.27% | viability, T/C [6]: 6.69% | viability, T/C (second compound 0.316 µM, first compound 0.316 µM): 4.1% | viability, T/C (second compound 0.316 µM, first compound 1 µM): 5.15% | viability, T/C (second compound 0.316 µM, first compound 3.16 µM): 2.4% | viability, T/C (second compound 0.316 µM, first compound 10 µM): 1.49% | viability, T/C [7]: 7.44% | viability, T/C [8]: 6.59% | viability, T/C (second compound 1 µM, first compound 0.316 µM): 4.3% | viability, T/C (second compound 1 µM, first compound 1 µM): 2.92% | viability, T/C (second compound 1 µM, first compound 3.16 µM): 2.11% | viability, T/C (second compound 1 µM, first compound 10 µM): 1.04%
